Measured values reported in patent US10800741B2 (ANCUREALL PHARMACEUTICAL (SHANGHAI) CO., LTD., priority 2017, dated 2020).
Like-named read-outs stand apart in the source and are kept apart here.

Tests used:
Format in all cases: cell-based, Human
Kasumi-1 (KIT N822K) = test: In vitro growth inhibition of Kasumi-1 tumor cells (MTT/CCK8); conditions: Homo sapiens, Kasumi 1; in vitro growth inhibition (or induction of apoptosis), cells cultured 3 to 5 days, MTT (CCK8); read-out: IC50 Kasumi-1 (KIT N822K)
Description: (§1) Tumor cell lines are an effective model for studying in vitro tumor growth inhibition. In the present invention, a representative tumor cell line was selected to determine the cell growth inhibition activity of the present compound. All cell lines used were from ATCC, DSMZ, and cell banks of the Chinese Academy of Sciences. Cell culture conditions and methods were in accordance with the requirements of each cell line. Cells were subcultured in vitro for no more than 3 generations each time, and as required, single-clone purification and identification of cell lines could be carried out.
(§2) The cell culture media used were RPMI1640 (Gibco), DMEM (Gibco), MEM (Gibco), L15 (Gibco), IMDM (Gibco), McCOY'S5A, and William's (Gibco). 5-20% fetal bovine serum (Gibco), 1% double antibiotic, 2 mM glutamine, or 1 mM sodium pyruvate were added. The names, species, major gene characteristics, culture media and cell sources of the cell lines used are shown in table 1, wherein “amp” refers to gene amplification. “+++” refers to gene overexpression. The main genetic characteristics of cells were obtained from the COSMIC Cell Lines Project and related research papers, respectively.
(§3) Adherent cells were digested with 0.25% trypsin-EDTA (Gibco). Suspension culture cells were collected by centrifugation (1700 rpm, 3 minutes). The supernatant was discarded and the cells were counted. According to each cell growth cycle, different concentrations of cells were prepared (5˜10×10^4 cells per ml), and inoculated to 96-well plates (Corning), with 100 μl per well, and incubated overnight at 37° C., 5% CO2. The next day, the test compound was added to the cultured cells (2 wells in parallel). The final concentration of the solvent was less than 1/1,000. The cells were further cultured for 3 to 5 days and assayed by MTT.
(§4) The compound was stored at a concentration of 10 mM at −20° C. and diluted to 2- or 10-fold series prior to use. BGJ398 and AC220 were synthesized according to the methods of WO2006420A1 and US2007232604A1, respectively.
(§5) The adherent cells were taken out from the cell culture medium, and immediately added to a freshly prepared complete medium containing 10% CCK8 (5% FBS), 100 ul per hole. The suspended cells were directly added to a CCK8 reagent until reaching a final concentration of 10% and cultured for 1 to 4 hours.
(§6) T=optical density of drug-treated cell wells−optical density of blank control wells; T0=optical density of cell wells before drug treatment−optical density of blank control wells; C=optical density of solvent control wells−optical density of blank control wells. […] The experiments were repeated 1 to 3 times and a statistical analysis of data was conducted.

Karpas 299 (NPM-ALK) = test: In vitro growth inhibition of Karpas 299 tumor cells (MTT/CCK8); conditions: Homo sapiens
Description: as §1, §2, §3, §4, §5, §6

H1581 (FGFR1 amp) = test: In vitro growth inhibition of H1581 tumor cells (MTT/CCK8); conditions: Homo sapiens, NCI-H1581; in vitro growth inhibition (or induction of apoptosis), cells cultured 3 to 5 days, MTT (CCK8); read-out: IC50 H1581 (FGFR1 amp)
Description: as §1, §2, §3, §4, §5, §6

H1703 (PDGFRa amp) = test: In vitro growth inhibition of H1703 tumor cells (MTT/CCK8); conditions: Homo sapiens, NCI-H1703; in vitro growth inhibition (or induction of apoptosis), cells cultured 3 to 5 days, MTT (CCK8); read-out: IC50 H1703 (PDGFRa amp)
Description: as §1, §2, §3, §4, §5, §6

KCL-22 (BCR-ABL) = test: In vitro growth inhibition of KCL-22 tumor cells (MTT/CCK8); conditions: Homo sapiens, KCL-22; in vitro growth inhibition (or induction of apoptosis), cells cultured 3 to 5 days, MTT (CCK8); read-out: IC50 KCL-22 (BCR-ABL)
Description: as §1, §2, §3, §4, §5, §6

KATO III (FGFR2 amp) = test: In vitro growth inhibition of KATO III tumor cells (MTT/CCK8); conditions: Homo sapiens, KATO III; in vitro growth inhibition (or induction of apoptosis), cells cultured 3 to 5 days, MTT (CCK8); read-out: IC50 KATO III (FGFR2 amp)
Description: as §1, §2, §3, §4, §5, §6

MOLM-13 (FLT3-ITD) = test: In vitro growth inhibition of MOLM-13 tumor cells (MTT/CCK8); conditions: Homo sapiens
Description: as §1, §2, §3, §4, §5, §6

Hep3B2 (FGFR3/4+++) = test: In vitro growth inhibition of Hep3B2 tumor cells (MTT/CCK8); conditions: Homo sapiens, Hep3B; in vitro growth inhibition (or induction of apoptosis), cells cultured 3 to 5 days, MTT (CCK8); read-out: IC50 Hep3B2 (FGFR3/4+++)
Description: as §1, §2, §3, §4, §5, §6

[1] = KARPAS-299, in vitro growth inhibition (or induction of apoptosis), cells cultured 3 to 5 days, MTT (CCK8), read-out: IC50 Karpas 299 (NPM-ALK)
[2] = MOLM-13, in vitro growth inhibition (or induction of apoptosis), cells cultured 3 to 5 days, MTT (CCK8), read-out: IC50 MOLM-13 (FLT3-ITD)

| IC50 (Kasumi-1 (KIT N822K)) | IC50 (Karpas 299 (NPM-ALK); [1]) | IC50 (H1581 (FGFR1 amp)) | IC50 (H1703 (PDGFRa amp)) | IC50 (KCL-22 (BCR-ABL)) | IC50 (KATO III (FGFR2 amp)) | IC50 (MOLM-13 (FLT3-ITD); [2]) | IC50 (Hep3B2 (FGFR3/4+++)) | IC50 (Karpas 299 (NPM-ALK); KARPAS-299, read-out: IC50 Karpas 299 (NPM-ALK)) | IC50 (MOLM-13 (FLT3-ITD); MOLM-13, read-out: IC50 MOLM-13 (FLT3-ITD)) | SMILES |
| --- | --- | --- | --- | --- | --- | --- | --- | --- | --- | --- |
| > 1 µM | > 1 µM | > 1 µM | > 1 µM | > 1 µM | > 1 µM | 0.00069 µM |  |  |  | CC(C)(C)c1cc(NC(=O)Nc2ccc(-c3cn4c(n3)sc3cc(OCCC5CCOCC5)ccc34)cc2)no1 [AC220, reference compound] |
| 0.0261 µM | 0.587 µM | 0.00335 µM | 0.0079 µM | 0.00758 µM | 0.00051 µM | 0.00649 µM | 0.0256 µM |  |  | COc1cc2nccc(Oc3ccc(NC(=O)Nc4cc(C(C)(C)C)on4)c(Cl)c3)c2cc1C(N)=O [Compound 2, 4-{4-[3-(5-tert-butyl-isoxazol-3-yl)-ureido]-3-chloro-phenoxy}-7-methoxyquinolin-6-carboxamide] |
| 0.0278 µM | 0.725 µM | 0.00687 µM | 0.0166 µM | 0.014 µM | 0.00146 µM | 0.0354 µM | 0.0274 µM |  |  | COc1cc2nccc(Oc3ccc(NC(=O)Nc4cc(C(C)(C)C)on4)c(Br)c3)c2cc1C(N)=O [Compound 3, 4-{3-bromo-4-[3-(5-tert-butyl-isoxazol-3-yl)-ureido]-phenoxy}-7-methoxyquinolin-6-carboxamide] |
| 0.0145 µM | 0.756 µM | 0.0132 µM | 0.0218 µM | 0.0104 µM | 0.00293 µM | 0.122 µM | 0.0278 µM |  |  | COc1cc2nccc(Oc3ccc(NC(=O)Nc4cc(C(C)(C)C)on4)c(C(F)(F)F)c3)c2cc1C(N)=O [Compound 4] |
| 0.191 µM | 0.093 µM | 0.00919 µM | 0.0119 µM | 0.0465 µM | 0.00098 µM |  |  |  |  | COCCOc1cc2nccc(Oc3ccc(NC(=O)Nc4cc(C(C)(C)C)n[nH]4)c(Cl)c3)c2cc1C(N)=O [Compound 42, 4-{4-[3-(5-tert-butyl-2H-pyrazol-3-yl)-ureido]-3-chloro-phenoxy}-7-(2-methoxy-ethoxy)-quinolin-6-carboxamide] |
| 0.0763 µM | 0.6 µM | 0.326 µM | 0.37 µM |  | 0.0683 µM |  | 0.0851 µM |  |  | CC(C)(C)c1cc(NC(=O)Nc2ccc(Oc3ccnc4cc(OCCCN5CCN(c6ccccc6)CC5)c(C(N)=O)cc34)cc2Cl)[nH]n1 [Compound 86, 4-{4-[3-(5-tert-butyl-2H-pyrazol-3-yl)-ureido]-3-chloro-phenoxy}-7-[3-(4-phenyl-piperazin-1-yl)-propoxy]-quinolin-6-carboxamide] |
| 0.00419 µM | 0.144 µM |  | 0.0125 µM | 0.0551 µM | 0.00102 µM | 0.00365 µM | 0.0572 µM |  |  | CC(C)(C)c1cc(NC(=O)Nc2ccc(Oc3ccnc4cc(OCCCN5CCN(C(C)(C)C)CC5)c(C(N)=O)cc34)cc2Cl)[nH]n1 [Compound 87, 7-[3-(4-tert-butyl-piperazin-1-yl)-propoxy]-4-{4-[3-(5-tert-butyl-2H-pyrazol-3-yl)-ureido]-3-chlorophenoxy}-quinolin-6-carboxamide] |
| 0.0156 µM | 0.153 µM |  | 0.0556 µM | 0.282 µM | 0.00567 µM | 0.00549 µM | 0.175 µM |  |  | CN1CCCN(CCCOc2cc3nccc(Oc4ccc(NC(=O)Nc5cc(C(C)(C)C)n[nH]5)c(Cl)c4)c3cc2C(N)=O)CC1 [Compound 88, 4-{4-[3-(5-tert-butyl-2H-pyrazol-3-yl)-ureido]-3-chloro-phenoxy}-7-[3-(4-methyl-[1,4]-1-yl)-propoxy]-quinolin-6-carboxamide] |
| 0.00448 µM | 0.146 µM |  | 0.0131 µM | 0.045 µM | 0.00112 µM | 0.00643 µM | 0.0194 µM |  |  | CC(C)CN1CCN(CCCOc2cc3nccc(Oc4ccc(NC(=O)Nc5cc(C(C)(C)C)n[nH]5)c(Cl)c4)c3cc2C(N)=O)CC1 [Compound 89, 4-{4-[3-(5-tert-butyl-2H-pyrazol-3-yl)-ureido]-3-chloro-phenoxy}-7-[3-(4-isobutyl-piperazin-1-yl)-propoxy]-quinolin-6-carboxamide] |
| 0.00947 µM | 0.256 µM |  |  | 0.175 µM | 0.00278 µM | 0.00754 µM | 0.101 µM |  |  | CC(C)(C)c1cc(NC(=O)Nc2ccc(Oc3ccnc4cc(OCCCN5CCN(CC6CCCCC6)CC5)c(C(N)=O)cc34)cc2Cl)[nH]n1 [Compound 90] |
| 0.0164 µM | 0.216 µM |  |  | 0.184 µM | 0.00126 µM | 0.00641 µM | 0.0431 µM |  |  | CC(=O)N1CCN(CCCOc2cc3nccc(Oc4ccc(NC(=O)Nc5cc(C(C)(C)C)n[nH]5)c(Cl)c4)c3cc2C(N)=O)CC1 [Compound 91, 7-[3-(4-acetyl-piperazin-1-yl)-propoxy]-4-{4-[3-(5-tert-butyl-2H-pyrazol-3-yl)-ureido]-3-chloro-phenoxy}-quinolin-6-carboxamide] |
| > 1 µM | > 1 µM | 0.146 µM | 0.666 µM | > 1 µM | 0.0313 µM | 0.00381 µM |  |  |  | COc1cc2nccc(Oc3ccc(NC(=O)Nc4cc(C(C)(C)C)n[nH]4)cn3)c2cc1C(N)=O [Compound 108, 4-{5-[3-(5-tert-butyl-2H-pyrazol-3-yl)-ureido]-pyridin-2-yloxy}-7-methoxy-quinolin-6-carboxamide] |
| 0.000375 µM | 0.0557 µM | 0.00298 µM | 0.00475 µM | 0.00107 µM | 0.0001 µM |  | 0.00841 µM |  |  | COc1cc2nccc(Oc3ccc(NC(=O)Nc4cc(C(C)(C)C)nn4C)c(Cl)c3C)c2cc1C(N)=O [Compound 111, 4-{4-[3-(5-tert-butyl-2-methyl-2H-pyrazol-3-yl)-ureido]-3-chloro-2-methyl-phenoxy}-7-methoxy-carboxamide] |
| 0.000406 µM | 0.1 µM | 0.00302 µM | 0.0173 µM | 0.00269 µM | 0.00023 µM |  | 0.0158 µM |  |  | COc1cc2nccc(Oc3ccc(NC(=O)Nc4cc(C(C)(C)C)n[nH]4)c(Cl)c3C)c2cc1C(N)=O [Compound 112, 4-{4-[3-(5-tert-butyl-2H-pyrazol-3-yl)-ureido]-3-chloro-2-methyl-phenoxy}-7-methoxy-quinolin-6-carboxamide] |
|  |  | 0.115 µM |  |  | 0.0237 µM | 0.0179 µM |  |  |  | CC(C)(C)c1cc(NC(=O)Nc2ccc(Oc3ccnc4cc(OCCCN5CCOCC5)c(C(N)=O)cc34)cc2Cl)n(C2CCCC2)n1 [Compound 140, 4-{4-[3-(5-tert-butyl-2-cyclopentyl-2H-pyrazol-3-yl)-ureido]-3-chloro-phenoxy}-7-(3-morpholin-4-yl-propoxy)-quinolin-6-carboxamide] |
|  |  |  |  |  |  |  |  | 0.798 µM | < 0.001 µM | Cc1ccc(C(=O)Nc2ccc(CN3CCN(C)CC3)c(C(F)(F)F)c2)cc1C#Cc1cnc2cccnn12 [Ponatinib, reference compound] |
